Values of other authors as cited in US20220288056A1, “PHARMACEUTICAL COMPOSITION CONTAINING NITROXOLINE, NITROXOLINE ORAL SOLID TABLET, PREPARATION METHOD THEREFOR AND USE THEREOF” (Jiangsu Yahong Meditech Co., Ltd., priority 2019, published 2022).

How the values were obtained:
[1] = target: T1, methionine aminopeptidase MetAP2 (Homo sapiens, UniProt P50579); conditions: vascular endothelial cells
T1 construct: host or cells: vascular endothelial cells

[2] = target: T2, silence information regulator 2-related enzyme SIRT1 (Homo sapiens, UniProt Q96EB6); conditions: vascular endothelial cells
T2 construct: host or cells: vascular endothelial cells
T2 sequence (Q96EB6 1-747): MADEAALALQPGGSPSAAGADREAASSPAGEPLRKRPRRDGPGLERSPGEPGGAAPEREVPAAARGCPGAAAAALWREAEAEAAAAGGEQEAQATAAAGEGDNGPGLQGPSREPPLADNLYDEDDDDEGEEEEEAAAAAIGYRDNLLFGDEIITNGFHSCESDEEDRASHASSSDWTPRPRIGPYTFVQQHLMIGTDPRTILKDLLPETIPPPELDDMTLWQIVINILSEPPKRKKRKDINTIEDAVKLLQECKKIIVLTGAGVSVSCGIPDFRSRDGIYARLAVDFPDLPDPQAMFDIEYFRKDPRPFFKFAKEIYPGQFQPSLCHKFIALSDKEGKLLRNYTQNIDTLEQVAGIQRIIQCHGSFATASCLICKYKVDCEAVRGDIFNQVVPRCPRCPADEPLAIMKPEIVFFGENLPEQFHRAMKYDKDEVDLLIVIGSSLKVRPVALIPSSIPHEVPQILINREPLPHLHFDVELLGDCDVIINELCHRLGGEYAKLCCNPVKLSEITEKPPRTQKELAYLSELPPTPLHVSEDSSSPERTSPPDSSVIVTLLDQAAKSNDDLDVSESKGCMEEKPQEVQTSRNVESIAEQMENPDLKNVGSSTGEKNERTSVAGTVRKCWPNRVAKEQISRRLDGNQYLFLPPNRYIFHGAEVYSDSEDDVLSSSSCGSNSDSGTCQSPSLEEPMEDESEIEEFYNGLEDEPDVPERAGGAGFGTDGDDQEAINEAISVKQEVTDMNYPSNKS

T1 sequence (P50579 whole entry): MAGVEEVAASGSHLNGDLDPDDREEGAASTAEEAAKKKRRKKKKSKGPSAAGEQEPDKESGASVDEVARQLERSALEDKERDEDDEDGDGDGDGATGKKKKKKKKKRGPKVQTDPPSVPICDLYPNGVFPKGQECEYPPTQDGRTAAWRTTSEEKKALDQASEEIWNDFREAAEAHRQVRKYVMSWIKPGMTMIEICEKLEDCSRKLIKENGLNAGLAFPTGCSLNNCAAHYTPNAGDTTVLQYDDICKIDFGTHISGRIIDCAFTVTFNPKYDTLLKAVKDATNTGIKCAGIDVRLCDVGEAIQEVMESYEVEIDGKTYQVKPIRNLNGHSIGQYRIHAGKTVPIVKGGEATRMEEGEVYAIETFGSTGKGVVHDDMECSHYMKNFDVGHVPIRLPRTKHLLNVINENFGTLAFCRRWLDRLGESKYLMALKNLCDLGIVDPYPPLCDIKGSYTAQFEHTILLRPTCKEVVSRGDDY

O=[N+]([O-])c1ccc(O)c2ncccc12 [Nitroxoline, 5-nitro-8-hydroxyquinoline]
inhibition of MetAP2 [1]: inhibit | inhibition of SIRT1 [2]: inhibit
